Measurements: the supplement of paper PMC10307832

Compound: COc1ccc(-c2ccc3c(N4CCOC[C@@H]4C)nc(N4CCOC[C@@H]4C)nc3n2)cc1CO [AZD8055]
Test: relative viability (nuclei count vs DMSO), 5 days (fraction); higher = more cells survive
In short: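 MetaXpress counted nuclei in 4× images of lung cancer cell lines that had been fixed, permeabilised and Hoechst-stained in one step. Before that, cells in 1536-well plates were kept overnight at 37 °C, pinned with five √10-spaced library-drug doses on vehicle-anchored plates, and cultured 5 days without medium change. Viability takes treated-well nuclei over vehicle-well nuclei and uses the median across plates. Plates were accepted only at control CV below 25% and at least one doubling.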

Cell Line | relative viability (0.01 µM) | relative viability (0.03162 µM) | relative viability (0.1 µM) | relative viability (0.3162 µM) | relative viability (1 µM)
NCI-H441 | 1.06 | 0.929 | 0.695 | 0.427 | 0.387
NCI-H1793 | 0.669 | 0.443 | 0.287 | 0.212 | 0.222
NCI-H23 | 1.09 | 0.804 | 0.662 | 0.371 | 0.373
HARA | 1.11 | 1.06 | 0.774 | 0.563 | 0.304
NCI-H1792 | 0.951 | 0.612 | 0.325 | 0.171 | 0.216
NCI-H1703 | 0.822 | 0.715 | 0.634 | 0.265 | 0.332
NCI-H2342 | 1.19 | 0.881 | 0.735 | 0.476 | 0.572
CAL-12T | 1.06 | 0.995 | 0.7 | 0.322 | 0.274
NCI-H727 | 1.17 | 0.953 | 0.695 | 0.544 | 0.412
NCI-H2085 | 1 | 0.987 | 0.723 | 0.43 | 0.42
NCI-H1395 | 0.869 | 0.648 | 0.739 | 0.488 | 0.427
NCI-H1648 | 0.642 | 0.745 | 0.542 | 0.271 | 0.326
NCI-H460 | 1.13 | 0.995 | 0.798 | 0.416 | 0.264
A549 | 1 | 0.83 | 0.639 | 0.19 | 0.106
IA-LM | 0.98 | 0.651 | 0.241 | 0.103 | 0.116
EKVX | 1.09 | 1.08 | 0.818 | 0.602 | 0.432
ChaGo-K-1 | 1.02 | 0.998 | 0.952 | 0.858 | 0.722
NCI-H1755 | 1.02 | 0.841 | 0.825 | 0.537 | 0.569
NCI-H2228 | 1.29 | 0.757 | 0.378 | 0.201 | 0.213
NCI-H2087 | 1.14 | 0.908 | 0.936 | 0.458 | 0.349
LU99A | 1.07 | 0.54 | 0.461 | 0.261 | 0.253
NCI-H1355 | 0.889 | 0.865 | 0.578 | 0.303 | 0.261
NCI-H520 | 0.904 | 0.441 | 0.373 | 0.19 | 0.178
NCI-H661 | 1.03 | 0.992 | 0.842 | 0.521 | 0.537
NCI-H650 | 0.984 | 0.809 | 0.738 | 0.427 | 0.303
NCI-H647 | 0.981 | 0.717 | 0.51 | 0.332 | 0.204

Cell Line | relative viability (0.01 µM) | relative viability (0.03162 µM) | relative viability (0.1 µM) | relative viability (0.3162 µM) | relative viability (1 µM)
201T | 0.955 | 0.987 | 0.907 | 0.635 | 0.487
NCI-H838 | 1.05 | 0.676 | 0.442 | 0.322 | 0.339
SW 1573 | 1.05 | 0.751 | 0.704 | 0.326 | 0.203
PC-14 | 1.23 | 1.09 | 0.715 | 0.286 | 0.178
LK-2 | 0.84 | 0.641 | 0.508 | 0.24 | 0.195
COR-L23 | 1.35 | 0.921 | 0.862 | 0.28 | 0.207
NCI-H1944 | 1.01 | 0.786 | 0.673 | 0.335 | 0.316
HCC-78 | 1.03 | 0.837 | 0.615 | 0.395 | 0.457
NCI-H2405 | 0.999 | 1 | 0.797 | 0.406 | 0.407
SK-LU-1 | 1.05 | 0.82 | 0.628 | 0.388 | 0.366
EMC-BAC-2 | 0.992 | 0.784 | 0.698 | 0.356 | 0.336
NCI-H1650 | 0.923 | 1 | 0.802 | 0.498 | 0.419
NCI-H596 | 0.953 | 0.762 | 0.683 | 0.469 | 0.406
LCLC-97TM1 | 1.04 | 0.822 | 0.453 | 0.246 | 0.205
H3255 | 1.11 | 0.948 | 0.778 | 0.436 | 0.349
LXF-289 | 1.07 | 1.05 | 1.01 | 0.909 | 0.768
UMC-11 | 0.942 | 0.711 | 0.607 | 0.345 | 0.322
LC-2-ad | 1.04 | 1.04 | 0.922 | 0.621 | 0.529
SK-MES-1 | 0.967 | 0.892 | 0.809 | 0.408 | 0.289
A-427 | 1.05 | 0.871 | 0.893 | 0.574 | 0.586
NCI-H322M | 0.933 | 0.968 | 0.741 | 0.64 | 0.601
HCC-366 | 1.11 | 0.963 | 0.907 | 0.698 | 0.354
NCI-H1975 | 1.05 | 0.812 | 0.55 | 0.347 | 0.283
NCI-H1437 | 1.05 | 1.02 | 0.895 | 0.448 | 0.318
NCI-H2009 | 1.03 | 0.918 | 0.924 | 0.501 | 0.344
NCI-H1651 | 1.08 | 0.847 | 0.871 | 0.61 | 0.389

Cell Line | relative viability (0.01 µM) | relative viability (0.03162 µM) | relative viability (0.1 µM) | relative viability (0.3162 µM) | relative viability (1 µM)
LCLC-103H | 0.945 | 0.86 | 0.86 | 0.609 | 0.519
NCI-H1666 | 1.1 | 1.07 | 0.925 | 0.802 | 0.675
NCI-H1734 | 1.08 | 0.732 | 0.646 | 0.385 | 0.276
EPLC-272H | 0.807 | 0.73 | 0.47 | 0.356 | 0.358
NCI-H2023 | 0.901 | 0.618 | 0.362 | 0.163 | 0.153
BEN | 0.901 | 0.6 | 0.53 | 0.358 | 0.325
COR-L 105 | 1.04 | 0.947 | 0.64 | 0.378 | 0.435
ABC-1 | 0.948 | 1.08 | 0.757 | 0.332 | 0.413
HCC-15 | 1.09 | 1.03 | 0.883 | 0.53 | 0.351
NCI-H2170 | 1.01 | 0.881 | 0.735 | 0.365 | 0.345
PC-3 [JPC-3] | 1.08 | 1.11 | 0.931 | 0.957 | 0.609
NCI-H1993 | 0.791 | 0.72 | 0.577 | 0.545 | 0.666
NCI-H358 | 1.03 | 1.15 | 0.855 | 0.323 | 0.263
NCI-H1563 | 0.844 | 0.791 | 0.719 | 0.604 | 0.684
EBC-1 | 1.11 | 0.828 | 0.609 | 0.244 | 0.205
NCI-H1915 | 1.01 | 0.81 | 0.959 | 0.63 | 0.513
RERF-LC-KJ | 1.05 | 0.942 | 0.822 | 0.458 | 0.414
LOU-NH91 | 0.931 | 0.934 | 0.724 | 0.633 | 0.624
NCI-H2347 | 1.14 | 0.942 | 0.911 | 0.5 | 0.48
NCI-H2126 | 0.973 | 0.926 | 0.743 | 0.515 | 0.418
HCC-827 | 1.13 | 1.1 | 1.11 | 0.876 | 0.768
Calu-6 | 1.13 | 0.991 | 0.835 | 0.621 | 0.449
NCI-H3122 | 1.06 | 1.11 | 0.846 | 0.457 | 0.311
HOP-62 | 1.09 | 0.922 | 1.08 | 0.639 | 0.54
HCC-44 | 0.99 | 1.03 | 0.844 | 0.552 | 0.473
